Data reported in patent publication US12466839B2, “Allosteric AKT inhibitors for use in the treatment of Hereditary Hemorrhagic Telangiectasia” (VADERIS THERAPEUTICS AG, priority 2020, dated 2025).

How the values were obtained:
CGRP1 = target: T1, CGRP1 (Homo sapiens, UniProt O60894+Q16602); experiment: Millipore Drug Discovery Safety and Liability Panel; assay type: cell-based
T1 construct: purchased Millipore

NTR1 = target: T2, NTR1 (Homo sapiens, UniProt P30989); experiment: as above; assay type: cell-based
T2 construct: Millipore

EP2 = target: T3, EP2 (Homo sapiens, UniProt P43116); experiment: as above; assay type: cell-based
T3 construct: purchased Millipore

CXCR1 = target: T4, CXCR1 (Homo sapiens, UniProt P25024); experiment: as above; assay type: cell-based
T4 construct: purchased Millipore

LPA3 = target: T5, LPA3 (Homo sapiens, UniProt Q9UBY5); experiment: as above; assay type: cell-based
T5 construct: purchased Millipore

A3 = target: T6, A3 (Homo sapiens, UniProt P0DMS8); experiment: as above; assay type: cell-based
T6 construct: purchased Millipore

Y2 = target: T7, Y2 (Homo sapiens, UniProt P49146); experiment: as above; assay type: cell-based
T7 construct: Millipore

NMU1 = target: T8, NMU1 (Homo sapiens, UniProt Q9HB89); experiment: as above; assay type: cell-based
T8 construct: Millipore

NK3 = target: T9, NK3 (Homo sapiens, UniProt P29371); experiment: as above; assay type: cell-based
T9 construct: purchased Millipore

[1] = tested on: AVM formation in Eng-iKO mice; experiment: Prevention of AVM formation in Eng-iKO mice (retinal vascular network); assay type: in vivo, mouse
Procedure: The Eng Flox/flox; cdh5-CreERT2 were injected with tamoxifen (50 μg) at P2 to […] once at P3, P4, P5 and P6. The same volume of vehicle was injected serving as control animals. Mice were then euthanized at P7 and retinas processed for immunofluorescence staining as described (Lebrin et al., as above).
The same volume of vehicle was injected serving as control animals. Mice were then euthanized at P7 and retinas processed for immunofluorescence staining as described (Lebrin et al., as above).
For the retinal vascular network, quantification of the number of AV shunts per mouse was done manually. […] A custom own-lab made macro allowed automatic processing of the images, using the same processing and quantification parameters. Briefly, the brightness of the images was enhanced by modifying the pixel extreme values, which depends on the specific image histogram content. A Gaussian filter was applied to reduce the intensity in homogeneities. The filter order depended on the image resolution. Next, the threshold step was computed, based on a global threshold technique such as Otsu's method or Li's method, resulting in binary image. A median filter was then applied to eliminate potential local irregularities, which could cause false branching point detection. From the binary images, the vascular density was quantified (calculated as the ratio of pixels associated with the vessels divided by the total number of pixels in the image). For the other parameters, a skeleton of the images was first computed using ImageJ, then the total vascular length was quantified using the Measure Skeleton Length plug-in from ImageJ. The number of branch points was extracted from the Analyze Skeleton plug-in of ImageJ. All results were transferred to Microsoft Office Excel software and automatically rearranged using a lab custom-made program. As all images generated at each step of the processing were saved, a visual control was made to ensure that there were no aberrant results.
Statistical analysis was performed with Prism 7 software (GraphPad). For most of the experiments, 1-way ANOVA was used for multiple comparisons. Results are expressed as mean±SEM. For post hoc pairwise, the Dunnett's test was used. A value of *P<0.05, **P<0.01, ***P<0.001 or ****P<0.0001 denotes statistical significance. An in-group variation of around 15% in parameters related to blood vessel architecture changes has been previously observed by the inventors, therefore a difference between controls and mutant mice of around 20-30% was anticipated. It was therefore expected that a group of 8 mice per condition would reveal statistical differences.
Eyes were fixed in 4% paraformaldehyde (PFA) in PBS at room temperature for 10 min, retinas were dissected, post-fixed in 4% PFA in PBS at 4° C. overnight then processed for immunostaining. Retinas were permeabilized in PBS, 1% BSA and 0.5% Triton X-100 at 4° C. overnight, rinsed in PBS, washed twice in PBlec (PBS, pH 6.8, 1% Triton-X-100, 0.1 mM CaCl2, 0.1 mM MgCl2, 0.1 mM MnCl2), and then incubated in biotinylated Griffonia simplicifolia lectin (isolectin B4) (B-1205, Vector Laboratories, 1:50) in PBlec at 4° C. overnight. After 5 washes in PBS, samples were incubated with streptavidin Cy-3 (PA43001, Sigma-Aldrich, 1:100) and with a-SMA (clone 1A4) (F3777, Sigma-Aldrich) conjugated with FITC diluted in PBS, 0.5% BSA, and 0.25% X-100 at 4° C. for 2 h. After washing, flat whole-mount retinas were mounted in DAKO medium (S3023, Dako). Complete high-resolution 3-dimensional rendering of whole-mount retinas was acquired using Laser Scanning Microscope SP5 or SP8 (Leica).

Thrombin-activated PARs = experiment: Millipore Drug Discovery Safety and Liability Panel; assay type: cell-based; settings: 10 μM
[2] = tested on: AKT kinase in Pi3Kα or PTEN mutant cells lines (e.g. MCF7, BT474 or LnCAP); experiment: AKT kinase inhibition in Pi3Kα or PTEN mutant cell lines; assay type: cell-based; settings: read-out: IC50 range for AKT kinase inhibition
P2Y1 = target: T10, P2Y1 (Homo sapiens, UniProt P47900); experiment: Millipore Drug Discovery Safety and Liability Panel; assay type: cell-based
T10 construct: Millipore

GPR109A = target: T11, GPR109A (Homo sapiens, UniProt Q8TDS4); experiment: as above; assay type: cell-based
T11 construct: purchased Millipore

[3] = read-out: ANTAGONIST mean % inhibition

T7 sequence (P49146 whole entry): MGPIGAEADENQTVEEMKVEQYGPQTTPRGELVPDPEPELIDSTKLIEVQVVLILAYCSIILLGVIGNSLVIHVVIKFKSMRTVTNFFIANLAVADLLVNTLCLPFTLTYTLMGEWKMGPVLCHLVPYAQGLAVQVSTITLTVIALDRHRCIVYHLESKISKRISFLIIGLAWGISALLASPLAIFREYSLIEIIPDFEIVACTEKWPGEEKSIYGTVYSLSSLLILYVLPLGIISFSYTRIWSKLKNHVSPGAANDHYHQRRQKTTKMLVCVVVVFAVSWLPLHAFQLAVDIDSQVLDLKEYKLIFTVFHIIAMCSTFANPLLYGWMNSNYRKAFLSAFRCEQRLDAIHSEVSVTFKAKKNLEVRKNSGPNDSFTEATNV
T10 sequence (P47900 whole entry, species assumed): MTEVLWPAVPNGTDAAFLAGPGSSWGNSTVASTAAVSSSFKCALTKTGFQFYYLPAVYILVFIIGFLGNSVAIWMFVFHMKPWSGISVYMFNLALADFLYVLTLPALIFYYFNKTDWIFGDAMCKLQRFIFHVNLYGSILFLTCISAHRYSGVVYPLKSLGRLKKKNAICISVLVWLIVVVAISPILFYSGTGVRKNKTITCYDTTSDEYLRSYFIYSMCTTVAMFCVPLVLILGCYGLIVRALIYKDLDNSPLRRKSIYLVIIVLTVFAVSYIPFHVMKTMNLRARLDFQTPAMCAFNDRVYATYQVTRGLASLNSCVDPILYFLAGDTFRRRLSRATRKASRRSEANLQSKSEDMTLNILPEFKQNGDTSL
T8 sequence (Q9HB89 whole entry): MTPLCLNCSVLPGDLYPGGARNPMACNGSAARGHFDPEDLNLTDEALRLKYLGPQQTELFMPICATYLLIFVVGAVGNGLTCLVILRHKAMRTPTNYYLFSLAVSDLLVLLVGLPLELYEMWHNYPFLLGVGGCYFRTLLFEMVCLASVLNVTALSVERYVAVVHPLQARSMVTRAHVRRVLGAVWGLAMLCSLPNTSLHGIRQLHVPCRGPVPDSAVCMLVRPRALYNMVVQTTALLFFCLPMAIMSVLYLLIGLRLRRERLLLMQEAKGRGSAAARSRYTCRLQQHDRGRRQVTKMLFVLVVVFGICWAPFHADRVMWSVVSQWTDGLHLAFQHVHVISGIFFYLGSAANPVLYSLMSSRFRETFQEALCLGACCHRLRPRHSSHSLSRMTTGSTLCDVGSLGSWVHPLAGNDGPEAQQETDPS
T6 sequence (P0DMS8 whole entry): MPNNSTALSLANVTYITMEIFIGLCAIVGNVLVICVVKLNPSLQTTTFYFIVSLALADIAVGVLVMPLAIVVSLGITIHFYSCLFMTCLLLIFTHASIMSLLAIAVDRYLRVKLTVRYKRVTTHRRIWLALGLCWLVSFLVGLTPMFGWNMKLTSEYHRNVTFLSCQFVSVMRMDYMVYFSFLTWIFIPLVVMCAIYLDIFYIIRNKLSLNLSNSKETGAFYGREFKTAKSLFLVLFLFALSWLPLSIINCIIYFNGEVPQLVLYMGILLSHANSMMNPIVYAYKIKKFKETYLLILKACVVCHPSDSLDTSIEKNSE
T11 sequence (Q8TDS4 whole entry, species assumed): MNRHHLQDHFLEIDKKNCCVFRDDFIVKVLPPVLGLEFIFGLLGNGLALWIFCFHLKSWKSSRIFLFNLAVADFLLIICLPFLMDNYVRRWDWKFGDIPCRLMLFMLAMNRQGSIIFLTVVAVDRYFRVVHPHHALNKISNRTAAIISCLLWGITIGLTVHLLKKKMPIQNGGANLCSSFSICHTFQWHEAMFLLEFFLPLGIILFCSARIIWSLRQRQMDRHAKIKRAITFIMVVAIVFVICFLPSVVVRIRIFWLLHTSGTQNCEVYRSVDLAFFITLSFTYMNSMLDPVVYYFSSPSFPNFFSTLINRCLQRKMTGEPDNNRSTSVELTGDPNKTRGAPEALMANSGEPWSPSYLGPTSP
T2 sequence (P30989 whole entry, species assumed): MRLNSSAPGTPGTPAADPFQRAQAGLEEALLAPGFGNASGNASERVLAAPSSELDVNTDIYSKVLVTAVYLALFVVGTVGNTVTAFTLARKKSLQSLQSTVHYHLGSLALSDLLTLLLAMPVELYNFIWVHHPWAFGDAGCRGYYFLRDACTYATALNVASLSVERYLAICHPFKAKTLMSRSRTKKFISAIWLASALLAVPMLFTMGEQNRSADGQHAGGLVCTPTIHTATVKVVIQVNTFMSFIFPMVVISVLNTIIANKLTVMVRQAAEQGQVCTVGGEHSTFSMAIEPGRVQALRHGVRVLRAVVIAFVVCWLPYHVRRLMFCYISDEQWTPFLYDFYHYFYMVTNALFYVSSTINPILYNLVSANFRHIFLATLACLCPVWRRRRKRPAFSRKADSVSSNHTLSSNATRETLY
T5 sequence (Q9UBY5 whole entry, species assumed): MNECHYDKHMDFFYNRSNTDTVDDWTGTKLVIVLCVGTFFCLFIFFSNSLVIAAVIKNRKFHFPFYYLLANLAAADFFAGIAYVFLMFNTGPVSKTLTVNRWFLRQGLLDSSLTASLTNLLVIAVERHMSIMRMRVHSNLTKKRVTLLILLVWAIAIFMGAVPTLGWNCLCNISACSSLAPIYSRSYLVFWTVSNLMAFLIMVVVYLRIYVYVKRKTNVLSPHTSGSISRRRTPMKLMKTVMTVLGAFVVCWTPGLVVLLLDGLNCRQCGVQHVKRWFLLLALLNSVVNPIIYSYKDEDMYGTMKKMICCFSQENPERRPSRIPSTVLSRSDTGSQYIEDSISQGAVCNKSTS
T1 sequence (Q16602 23-461): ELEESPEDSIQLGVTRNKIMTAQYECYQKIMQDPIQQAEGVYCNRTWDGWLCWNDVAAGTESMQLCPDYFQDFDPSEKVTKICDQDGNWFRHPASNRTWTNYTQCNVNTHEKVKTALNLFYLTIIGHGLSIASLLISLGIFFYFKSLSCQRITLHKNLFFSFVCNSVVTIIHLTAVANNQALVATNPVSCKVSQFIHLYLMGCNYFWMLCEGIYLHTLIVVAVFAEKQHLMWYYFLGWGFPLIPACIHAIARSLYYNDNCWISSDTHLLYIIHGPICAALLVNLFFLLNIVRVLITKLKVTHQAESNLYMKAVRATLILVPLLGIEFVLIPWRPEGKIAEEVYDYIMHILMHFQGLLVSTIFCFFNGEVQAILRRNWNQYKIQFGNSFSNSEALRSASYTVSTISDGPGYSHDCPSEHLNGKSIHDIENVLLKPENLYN
T1 sequence (O60894 27-148 partner): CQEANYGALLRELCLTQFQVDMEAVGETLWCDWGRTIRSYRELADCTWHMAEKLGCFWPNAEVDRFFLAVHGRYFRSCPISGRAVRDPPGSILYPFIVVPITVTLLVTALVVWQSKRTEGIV
T9 sequence (P29371 whole entry): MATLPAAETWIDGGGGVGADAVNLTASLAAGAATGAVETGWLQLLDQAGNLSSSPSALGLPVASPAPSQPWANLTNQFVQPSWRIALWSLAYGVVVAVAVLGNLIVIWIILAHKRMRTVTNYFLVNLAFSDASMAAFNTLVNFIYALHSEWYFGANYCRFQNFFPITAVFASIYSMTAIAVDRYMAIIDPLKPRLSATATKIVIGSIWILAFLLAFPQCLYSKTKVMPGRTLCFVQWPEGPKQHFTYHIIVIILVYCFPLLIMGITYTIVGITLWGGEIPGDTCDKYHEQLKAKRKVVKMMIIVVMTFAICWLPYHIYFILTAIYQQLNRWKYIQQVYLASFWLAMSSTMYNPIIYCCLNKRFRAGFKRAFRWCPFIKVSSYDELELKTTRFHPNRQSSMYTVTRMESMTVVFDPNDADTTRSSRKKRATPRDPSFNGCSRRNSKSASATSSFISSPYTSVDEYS
T4 sequence (P25024 whole entry): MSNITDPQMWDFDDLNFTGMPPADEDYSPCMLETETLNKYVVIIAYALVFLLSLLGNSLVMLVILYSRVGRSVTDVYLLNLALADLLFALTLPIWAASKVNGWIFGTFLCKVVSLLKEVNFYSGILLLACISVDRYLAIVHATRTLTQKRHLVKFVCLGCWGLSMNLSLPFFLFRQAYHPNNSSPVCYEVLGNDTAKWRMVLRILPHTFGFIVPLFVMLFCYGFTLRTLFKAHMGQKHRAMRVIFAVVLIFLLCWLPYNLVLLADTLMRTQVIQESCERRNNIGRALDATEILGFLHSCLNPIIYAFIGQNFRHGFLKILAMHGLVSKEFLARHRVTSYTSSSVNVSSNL
T3 sequence (P43116 whole entry): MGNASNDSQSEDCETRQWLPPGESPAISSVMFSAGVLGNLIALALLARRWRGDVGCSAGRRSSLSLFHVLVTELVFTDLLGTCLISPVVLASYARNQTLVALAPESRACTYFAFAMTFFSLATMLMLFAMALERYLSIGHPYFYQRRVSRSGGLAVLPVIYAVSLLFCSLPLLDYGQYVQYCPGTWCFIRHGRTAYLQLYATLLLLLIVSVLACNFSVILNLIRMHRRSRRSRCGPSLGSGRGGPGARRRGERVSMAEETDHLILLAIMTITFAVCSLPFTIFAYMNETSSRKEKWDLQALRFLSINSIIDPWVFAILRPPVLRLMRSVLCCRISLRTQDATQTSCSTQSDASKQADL

Structure (SMILES): CCN1C(=O)COc2nc(-c3ccc(C4(N)CC(O)C4)cc3)c(-c3ccccc3)cc21.O=C(O)C(O)C(O)C(=O)O [VAD044, 6-(4-(1-amino-3-hydroxycyclobutyl)phenyl)-1-ethyl-7-phenyl-1H-pyrido[2,3-b][1,4]oxazin-2(3H)-one L-tartrate]
- activation at 10 µM (CGRP1; CGRP1, 10 μM, read-out: AGONIST mean % increase in activity): -0.1%
- inhibition at 10 µM (CGRP1; [3]): -7.9%
- activation at 10 µM (NTR1; NTR1, 10 μM, read-out: AGONIST mean % increase in activity): -0.6%
- inhibition at 10 µM (NTR1; [3]): 6.1%
- activation at 10 µM (EP2; EP2, 10 μM, read-out: AGONIST mean % increase in activity): -1%
- inhibition at 10 µM (EP2; [3]): -0.5%
- activation at 10 µM (CXCR1; CXCR1, 10 μM, read-out: AGONIST mean % increase in activity): -0.3%
- inhibition at 10 µM (CXCR1; [3]): 3.7%
- activation at 10 µM (LPA3; LPA3, 10 μM, read-out: AGONIST mean % increase in activity): -0.7%
- inhibition at 10 µM (LPA3; [3]): -0.2%
- activation at 10 µM (A3; read-out: AGONIST mean % increase in activity): 0.2%
- inhibition at 10 µM (A3; [3]): 28.5%
- activation at 10 µM (Y2; Y2, 10 μM, read-out: AGONIST mean % increase in activity): -2.2%
- inhibition at 10 µM (Y2; [3]): -5.7%
- activation at 10 µM (NMU1; NMU1, 10 μM, read-out: AGONIST mean % increase in activity): -3.1%
- inhibition at 10 µM (NMU1; [3]): 5.5%
- activation at 10 µM (NK3; NK3, 10 μM, read-out: AGONIST mean % increase in activity): -0.4%
- inhibition at 10 µM (NK3; [3]): 16.9%
- prevention of AVM shunt formation ([1]; 2.5 mg·kg−1): fully prevent AVM shunt formation
- density of the retinal vascular network ([1]; Eng-iKO mice): normalize the density
- number of branch points of the Eng-iKO vascular network ([1]; Eng-iKO mice): slightly reducing
- radial expansion of the Eng-iKO vascular network ([1]; Eng-iKO mice): slightly reducing
- prevention of AV shunt formation ([1]; Eng-iKO mice, 1.25 mg·kg-1): not to be effective
- prevention of AV shunt formation ([1]; Eng-iKO mice, 2.5 mg·kg-1 and above, at P3 and P5): efficiently prevented AV shunt formation
- minimal effective dose ([1]; HHT1 (Eng-iKO) mouse model): 2.5 mg/kg
- AGONIST mean % increase in activity (Thrombin-activated PARs): 0%
- ANTAGONIST mean % inhibition (Thrombin-activated PARs): −1.2%
- IC50 [2]: 0.05 to 0.13 µM
- AGONIST mean % increase in activity (P2Y1; 10 μM): 1%
- inhibition at 10 µM (P2Y1; [3]): 50.6%
- activation at 10 µM (GPR109A; GPR109A, 10 μM, read-out: AGONIST mean % increase in activity): -0.7%
- inhibition at 10 µM (GPR109A; [3]): 3.1%
